Measured values published in ChEMBL document CHEMBL1141157, “A combination of docking, QM/MM methods, and MD simulation for binding affinity estimation of metalloprotein ligands” (J Med Chem, 2005).

Experiments:
[1] = molecular target: T1, Matrix metalloproteinase-9 (Homo sapiens, UniProt P14780); test: Inhibition of MOCAc-Pro-Leu-Gly-Leu-A2p (Dnp)-Ala-Arg-NH2 binding to human matrix metalloprotease-9 (MMP-9); details: read-out: Log 1/Ki (converted)
[2] = molecular target: T1, Matrix metalloproteinase-9; test: Inhibition constant for human matrix metalloprotease-9 (MMP-9)

T1 sequence (P14780 whole entry): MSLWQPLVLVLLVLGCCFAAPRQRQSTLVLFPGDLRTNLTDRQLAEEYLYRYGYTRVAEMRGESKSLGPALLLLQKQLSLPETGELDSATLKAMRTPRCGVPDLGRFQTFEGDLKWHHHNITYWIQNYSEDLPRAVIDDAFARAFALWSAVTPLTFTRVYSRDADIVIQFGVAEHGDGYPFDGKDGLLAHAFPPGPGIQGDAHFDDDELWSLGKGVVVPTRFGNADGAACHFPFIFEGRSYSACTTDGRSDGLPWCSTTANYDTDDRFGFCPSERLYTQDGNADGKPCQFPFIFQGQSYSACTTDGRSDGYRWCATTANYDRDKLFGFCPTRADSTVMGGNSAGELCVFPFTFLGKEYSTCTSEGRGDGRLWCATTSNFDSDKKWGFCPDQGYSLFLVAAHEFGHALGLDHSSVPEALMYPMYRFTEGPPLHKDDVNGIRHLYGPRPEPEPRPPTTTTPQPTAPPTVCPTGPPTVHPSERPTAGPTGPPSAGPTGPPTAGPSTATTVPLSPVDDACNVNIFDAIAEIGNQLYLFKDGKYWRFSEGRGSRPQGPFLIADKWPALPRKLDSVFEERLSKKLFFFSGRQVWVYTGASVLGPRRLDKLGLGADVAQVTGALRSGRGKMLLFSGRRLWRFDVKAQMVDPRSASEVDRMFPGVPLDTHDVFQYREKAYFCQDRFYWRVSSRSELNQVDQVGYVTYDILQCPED

SMILES: CCOP(=O)(c1ccc(OC)cc1)N1Cc2cc(N)ccc2C[C@@H]1C(=O)NO (stereo partly drawn)
- Ki [1]: 11 nM

SMILES: CCOP(=O)(c1ccc(C)cc1)N1Cc2ccccc2C[C@@H]1C(=O)NO (stereo partly drawn)
- Ki [2]: 41.8 nM
- Ki [1]: 41.8 nM

SMILES: CCOP(=O)(c1ccc(N)cc1)N1Cc2ccccc2C[C@@H]1C(=O)NO (stereo partly drawn)
- Ki [1]: 95.5 nM

SMILES: CCOP(=O)(c1ccc(Oc2ccccc2)cc1)N1Cc2ccccc2C[C@@H]1C(=O)NO (stereo partly drawn)
- Ki [1]: 0.0794 nM

SMILES: CCOP(=O)(CCc1ccccc1)N1Cc2ccccc2C[C@@H]1C(=O)NO (stereo partly drawn)
- Ki [1]: 38.3 nM

SMILES: CCOP(=O)(c1ccc(Oc2ccncc2)cc1)N1Cc2ccccc2C[C@@H]1C(=O)NO (stereo partly drawn)
- Ki [1]: 0.6 nM

SMILES: CCOP(=O)(c1ccc(OC)cc1)N1Cc2ccccc2C[C@H]1C(=O)NO (stereo partly drawn)
- Ki [2]: 349 nM
- Ki [1]: 349 nM

SMILES: CCOP(=O)(c1ccc(Oc2ccc(N)cc2)cc1)N1Cc2ccccc2C[C@@H]1C(=O)NO (stereo partly drawn)
- Ki [1]: 0.1 nM

SMILES: CCOP(=O)(c1ccc(OC)cc1)N1CCC[C@@H]1C(=O)NO (stereo partly drawn)
- Ki [1]: 316 nM

SMILES: CCOP(=O)(c1ccc(OC)cc1)N1CC2Nc3ccccc3C2C[C@@H]1C(=O)NO (stereo partly drawn)
- Ki [1]: 1.13 nM

SMILES: COc1ccc(P(=O)(OCCc2ccc(-c3ccccc3)cc2)N2Cc3ccccc3C[C@@H]2C(=O)NO)cc1 (stereo partly drawn)
- Ki [1]: 6.47 nM

SMILES: CCOP(=O)(c1ccccc1)N1Cc2ccccc2C[C@@H]1C(=O)NO (stereo partly drawn)
- Ki [2]: 42.7 nM
- Ki [1]: 42.7 nM

SMILES: CCN(CC)CCOP(=O)(c1ccc(OC)cc1)N1Cc2ccccc2C[C@@H]1C(=O)NO (stereo partly drawn)
- Ki [1]: 16.7 nM

SMILES: COc1ccc(P(=O)(OCC2CCCCC2)N2Cc3ccccc3C[C@@H]2C(=O)NO)cc1 (stereo partly drawn)
- Ki [1]: 4.56 nM

SMILES: COc1ccc(P(=O)(OCCc2ccccn2)N2Cc3ccccc3C[C@@H]2C(=O)NO)cc1 (stereo partly drawn)
- Ki [1]: 3.42 nM

SMILES: CCOCCOc1ccc(P(=O)(OCC)N2Cc3ccccc3C[C@@H]2C(=O)NO)cc1 (stereo partly drawn)
- Ki [1]: 14.2 nM

SMILES: COc1ccc(P(=O)(OC)N2Cc3ccccc3C[C@@H]2C(=O)NO)cc1 (stereo partly drawn)
- Ki [1]: 2.03 nM

SMILES: CCOP(=O)(c1cccc(F)c1)N1Cc2ccccc2C[C@@H]1C(=O)NO (stereo partly drawn)
- Ki [1]: 80.2 nM

SMILES: CCOP(=O)(c1ccc(OC)cc1)N1Cc2ccccc2C[C@@H]1C(=O)NO (stereo partly drawn)
- Ki [2]: 5.05 nM
- Ki [1]: 5.05 nM

SMILES: CCOP(=O)(c1ccc(F)cc1)N1Cc2ccccc2C[C@@H]1C(=O)NO (stereo partly drawn)
- Ki [2]: 51.9 nM
- Ki [1]: 51.9 nM

SMILES: CCOP(=O)(c1cccs1)N1Cc2ccccc2C[C@@H]1C(=O)NO (stereo partly drawn)
- Ki [1]: 59.2 nM

SMILES: CCOP(=O)(c1ccccc1F)N1Cc2ccccc2C[C@@H]1C(=O)NO (stereo partly drawn)
- Ki [1]: 32.1 nM

SMILES: CCOP(=O)(c1ccc(OC)cc1)N1CCN(C(=O)OCc2ccccc2)C[C@@H]1C(=O)NO (stereo partly drawn)
- Ki [1]: 5.2 nM

SMILES: CCOCCOP(=O)(c1ccc(OC)cc1)N1Cc2ccccc2C[C@@H]1C(=O)NO (stereo partly drawn)
- Ki [1]: 6.35 nM

SMILES: CCOP(=O)(c1ccncc1)N1Cc2ccccc2C[C@@H]1C(=O)NO (stereo partly drawn)
- Ki [1]: 278 nM

SMILES: COc1ccc(P(=O)(OC2CCCCC2)N2Cc3ccccc3C[C@@H]2C(=O)NO)cc1 (stereo partly drawn)
- Ki [1]: 6.58 nM

SMILES: CCOP(=O)(c1ccc(-c2ccccc2)cc1)N1Cc2ccccc2C[C@@H]1C(=O)NO (stereo partly drawn)
- Ki [1]: 0.31 nM

SMILES: CCOP(=O)(c1ccc(OC)cc1)N1Cc2ccsc2C[C@@H]1C(=O)NO (stereo partly drawn)
- Ki [1]: 3.8 nM
